# Assay results as given in patent US20230330093A1, “APPLICATION OF NITROGEN-CONTAINING SATURATED HETEROCYCLIC COMPOUND” (SHANGHAI PHARMACEUTICALS HOLDING CO., LTD., priority 2020, published 2023).
# Values joined by “and” are separate entries in the source; they are usually repeats but may differ in a detail not shown here. Equal entries are not always repeated.
# System: rhesus monkeys with spontaneous chronic kidney disease
# Assay: Effect on serum K+, 8-week administration
# Details: 5mg/kg (n = 6)
# Procedure: In the trial, animals were brought in three stages. In the first stage, there were two groups: 3 animals (No. 257, No. 4721, No. 287) in a group with 5 mg/kg of the malate of compound of formula I, and 2 animals (No. 1029, No. 4713) in the placebo group. […] In the third stage, there were two groups: 5 animals (No. 4829, No. 6501, No. 287, No. 4721, No. 2091) in a group with 2 mg/kg of the malate of compound of formula I, and 5 animals (No. 1567, No. 4861, No. 5453, No. 6653, No. 5073) in a group with 1 mg/kg of the malate of compound of formula I.
# Serum potassium, twice before administration, once every 2 weeks during the administration period;
# Blood biochemical and urine index detection equipment: Roche cobas6000 analyzer series C501 module detection. ELISA kit was used for NT-proBNP test.
smiles,measurement,setting,value
COC(=O)NCCCn1nc(C(C)N(C(=O)C2CNCCO2)C2CC2)c2ccc(C)nc21.O=C(O)CC(O)C(=O)O (stereo not drawn) [malate of compound of Formula 1],K^+,"2 weeks, Mean ± SD",4.98 ± 0.73 mmol/L
same,K^+,"2 weeks, individual animals",4.91 mmol/L and 4.55 mmol/L and 6.07 mmol/L and 5.37 mmol/L and 5.05 mmol/L and 3.93 mmol/L
same,K^+,"4 weeks, Mean ± SD",4.49 ± 0.62 mmol/L
same,K^+,"4 weeks, individual animals",4.33 mmol/L and 4.55 mmol/L and 5.46 mmol/L and 4.50 mmol/L and 4.61 mmol/L and 3.51 mmol/L
same,K^+,"6 weeks, Mean ± SD",4.57 ± 0.66 mmol/L
same,K^+,"6 weeks, individual animals",4.53 mmol/L and 4.16 mmol/L and 4.77 mmol/L and 4.76 mmol/L and 5.58 mmol/L and 3.60 mmol/L
same,K^+,"8 weeks, Mean ± SD",4.49 ± 0.70 mmol/L
same,K^+,"8 weeks, individual animals",4.26 mmol/L and 4.64 mmol/L and 4.49 mmol/L and 5.28 mmol/L and 5.00 mmol/L and 3.26 mmol/L
same,K^+,"Baseline 1, Mean ± SD",4.89 ± 0.35 mmol/L
same,K^+,"Baseline 1, individual animals",4.78 mmol/L and 4.54 mmol/L and 4.93 mmol/L and 5.41 mmol/L and 5.16 mmol/L and 4.52 mmol/L
same,K^+,"Baseline 2, Mean ± SD",4.81 ± 0.48 mmol/L
same,K^+,"Baseline 2, individual animals",5.43 mmol/L and 4.74 mmol/L and 4.03 mmol/L and 5.20 mmol/L and 4.75 mmol/L and 4.72 mmol/L
